Measured values: patent US11547722B2, “Bactericides and antifungal agents” (priority 2017, dated 2023)
Converted amounts (≈) assume the structure as drawn. Where two headings read alike, the source gives them in different places.

Tests used:
[1] = system: MRSA (Meticillin Resistant Staphylococcus aureus, ATCC 43300); test: MIC test on MRSA bacteria (serial two-fold dilution, 96-well plate)
[2] = system: MSSA (Meticillin Sensitive Staphylococcus aureus, ATCC 29213); test: MIC test on MSSA bacteria (serial two-fold dilution, 96-well plate)
[3] = Aqueous solubility of metal sulfides without and with solubilizing additive
Procedure: Mix the 90 mL of the SO4Cu solution with 10 mL of the Na2S solution. […] Separate it by filtration.
Place this precipitate in 100 mL of water in a stirred container.
With constant stirring, drop a very concentrated solution of NH3 into the water very slowly.
Mix the 97 mL of the NO3Ag solution with 3 mL of the Na2S solution. […] Separate it by filtration.
With constant stirring, drop very slowly a concentrated solution of ammonium citrate (NH4)5(C6H4O7)2H3.
Dissolve 77 mg of Cl3Au in 95 mL of water. Mix the 95 mL of the Cl3Au solution with 5 mL of the Na2S solution. […] Separate it by filtration.
While stirring constantly, drop a very concentrated solution of potassium dichromate very slowly.

[4] = aqueous solutions, 24 h at 37° C.

**Q.** Which results are given for `Cc1onc(-c2ccccc2)c1C(=O)N[C@@H]1C(=O)N2[C@@H]1SC(C)(C)[C@@H]2C(=O)O` [Oxacilline, reference compound]?
**A.** MIC ([1]; Staphylococcus aureus, 24 h, read-out: MIC MRSA): 256 µg/mL (≈ 638 µM); MIC ([2]; Staphylococcus aureus, 24 h, read-out: MIC MSSA): 0.25 µg/mL (≈ 0.623 µM)

**Q.** With `[Au+3].[Au+3].[S-2].[S-2].[S-2]` [S3Au2, gold sulfide] as the molecule, how does the “aqueous Au concentration reached” value ([3]; addition of potassium dichromate alone or an equimolar mixture of potassium dichromate and ammonia) read?
**A.** at least 0.2 g/l

**Q.** And the “aqueous concentration in Au reached” value ([3]; addition of potassium dichromate, or potassium dichromate and ammonia, Example 3)?
**A.** at least 0.2 g.l^−1

**Q.** What about the “maximum concentration in aqueous solution” value ([3]; without additive) of the same molecule?
**A.** undetectable

**Q.** What about the “maximum concentration in water” value ([3]; without additive, Examples 1 and 3) of the same molecule?
**A.** undetectable

**Q.** For `O=S(=O)([O-])[O-].[Cu+2]` [V, copper sulfate], which “MIC MRSA” value [1, 4] is on record?
**A.** 78 to 157 µg/mL

**Q.** What about the “MIC MSSA” value [2, 4] of the same molecule?
**A.** 78 µg/mL

**Q.** With copper sulfide [SCu] as the molecule, how does the “aqueous concentration in Cu reached” value [3] read?
**A.** at least 0.2 g.l^−1

**Q.** And the “aqueous concentration of Cu reached” value [3]?
**A.** ≥ 0.2 g/L

**Q.** And the “maximum concentration in aqueous solution” value [3]?
**A.** 0.33 mg/L

**Q.** And the “maximum concentration in water” value [3]?
**A.** 0.33 mg/L
